Reference: patent US20210032257A1, “(E)-1-(4-(DIMETHYLAMINO)BUT-2-ENOYL)PYRROLIDIN-3-YL 4-((3-ISOPROPYL-5-METHYLPYRAZOLO[1,5-A]PYRIMIDIN-7-YL)AMINO)PIPERIDINE-1-CARBOXYLATE FOR INHIBITING CDK7” (Eli Lilly and Company, priority 2017, published 2021)

What was measured:
Experiment in all cases: Biomarker study proliferation (CellTiter-Glo)
Type in all cases: cell-based
SNU478 = tested on: SNU478
How it was run: (§1)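 Ten concentrations, threefold apart, starting from a 10 mM DMSO working stock, are applied to cells seeded at 5000/well. Exposure lasts 7 days at 37 °C, 5% CO2, and viability is read by luminescence.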

SNU245 = tested on: SNU245
How it was run: as §1

MKN74 = tested on: MKN74
How it was run: as §1

NCIH526 = tested on: NCIH526
How it was run: as §1

HCC44 = tested on: HCC44
How it was run: as §1

KYSE150 = tested on: KYSE150
How it was run: as §1

MDAPCA2B = tested on: MDAPCA2B
How it was run: as §1

MKN45 = tested on: MKN45
How it was run: as §1

NCIH1734 = tested on: NCIH1734
How it was run: as §1

LNCAP = tested on: LNCAP
How it was run: as §1

SNU739 = tested on: SNU739
How it was run: as §1

Raw264.7 = tested on: Raw264.7
How it was run: as §1

MHCC97H = tested on: MHCC97H
How it was run: as §1

MKN7 = tested on: MKN7
How it was run: as §1

HL60 = tested on: HL60
How it was run: as §1

TYKNU = tested on: TYKNU
How it was run: as §1

DMS79 = tested on: DMS79
How it was run: as §1

THP1 = tested on: THP1
How it was run: as §1

COLO201 = tested on: COLO201
How it was run: as §1

[1] = 168 h, read-out: Anti-proliferation effect IC50

Structure (SMILES): Cc1cc(NC2CCN(C(=O)O[C@H]3CCN(C(=O)/C=C/CN(C)C)C3)CC2)n2ncc(C(C)C)c2n1 [Example 1, [(3S)-1-[(E)-4-(dimethylamino)but-2-enoyl]pyrrolidin-3-yl] 4-[(3-isopropyl-5-methyl-pyrazolo[1,5-a]pyrimidin-7-yl)amino]piperidine-1-carboxylate]
- IC50 (SNU478; [1]): 32 nM
- Anti-proliferation effect % Inh. (SNU478; SNU478, BILIARY, 7 days): 92%
- Anti-proliferation effect Outcome (SNU478; SNU478, BILIARY, 7 days): Cytotoxic (cytotoxic (IC50<1 μM and % inhibition ≥70%))
- IC50 (SNU245; [1]): 1090 nM
- Anti-proliferation effect % Inh. (SNU245; SNU245, BILIARY, 7 days): −5%
- Anti-proliferation effect Outcome (SNU245; SNU245, BILIARY, 7 days): Insensitive (insensitive (IC50≥1 μM))
- IC50 (MKN74; Homo sapiens, MKN-74, 168 h, read-out: Anti-proliferation effect IC50): 73 nM
- Anti-proliferation effect % Inh. (MKN74; MKN74, STOMACH, 7 days): 71%
- Anti-proliferation effect Outcome (MKN74; MKN74, STOMACH, 7 days): Cytotoxic (cytotoxic (IC50<1 μM and % inhibition ≥70%))
- IC50 (NCIH526; Homo sapiens, NCI-H526, 168 h, read-out: Anti-proliferation effect IC50): 18 nM
- Anti-proliferation effect % Inh. (NCIH526; NCIH526, LUNG, 7 days): 94%
- Anti-proliferation effect Outcome (NCIH526; NCIH526, LUNG, 7 days): Cytotoxic (cytotoxic (IC50<1 μM and % inhibition ≥70%))
- Anti-proliferation effect % Inh. (HCC44; HCC44, LUNG, 7 days): 48%
- Anti-proliferation effect Outcome (HCC44; HCC44, LUNG, 7 days): Cytostatic (cytostatic (IC50<1 μM and % inhibition <70%))
- IC50 (HCC44; Homo sapiens, HCC44, 168 h, read-out: Anti-proliferation effect IC50): 131 nM
- IC50 (KYSE150; Homo sapiens, KYSE-150, 168 h, read-out: Anti-proliferation effect IC50): 42 nM
- Anti-proliferation effect % Inh. (KYSE150; KYSE150, OESOPHAGUS, 7 days): 64%
- Anti-proliferation effect Outcome (KYSE150; KYSE150, OESOPHAGUS, 7 days): Cytostatic (cytostatic (IC50<1 μM and % inhibition <70%))
- IC50 (MDAPCA2B; MDA-PCa-2b, 168 h, read-out: Anti-proliferation effect IC50): 6270 nM
- Anti-proliferation effect % Inh. (MDAPCA2B; MDAPCA2B, PROSTATE, 7 days): 17%
- Anti-proliferation effect Outcome (MDAPCA2B; MDAPCA2B, PROSTATE, 7 days): Insensitive (insensitive (IC50≥1 μM))
- IC50 (MKN45; Homo sapiens, MKN-45, 168 h, read-out: Anti-proliferation effect IC50): 56 nM
- Anti-proliferation effect % Inh. (MKN45; MKN45, STOMACH, 7 days): 79%
- Anti-proliferation effect Outcome (MKN45; MKN45, STOMACH, 7 days): Cytotoxic (cytotoxic (IC50<1 μM and % inhibition ≥70%))
- IC50 (NCIH1734; Homo sapiens, NCI-H1734, 168 h, read-out: Anti-proliferation effect IC50): 24 nM
- Anti-proliferation effect % Inh. (NCIH1734; NCIH1734, LUNG, 7 days): 76%
- Anti-proliferation effect Outcome (NCIH1734; NCIH1734, LUNG, 7 days): Cytotoxic (cytotoxic (IC50<1 μM and % inhibition ≥70%))
- IC50 (LNCAP; Homo sapiens, LNCaP, 168 h, read-out: Anti-proliferation effect IC50): 59 nM
- Anti-proliferation effect % Inh. (LNCAP; LNCAP, PROSTATE, 7 days): 74%
- Anti-proliferation effect Outcome (LNCAP; LNCAP, PROSTATE, 7 days): Cytotoxic (cytotoxic (IC50<1 μM and % inhibition ≥70%))
- Anti-proliferation effect % Inh. (SNU739; SNU739, LIVER, 7 days): 47%
- Anti-proliferation effect Outcome (SNU739; SNU739, LIVER, 7 days): Insensitive (insensitive (IC50≥1 μM))
- IC50 (SNU739; SNU-739, 168 h, read-out: Anti-proliferation effect IC50): > 10000 nM
- IC50 (Raw264.7; Mus musculus, RAW264.7, 168 h, read-out: Anti-proliferation effect IC50): 355 nM
- Anti-proliferation effect % Inh. (Raw264.7; Raw264.7, 7 days): 62%
- Anti-proliferation effect Outcome (Raw264.7; Raw264.7, 7 days): Cytostatic (cytostatic (IC50<1 μM and % inhibition <70%))
- IC50 (MHCC97H; Homo sapiens, 168 h, read-out: Anti-proliferation effect IC50): 243 nM
- Anti-proliferation effect % Inh. (MHCC97H; LIVER, 7 days): 59%
- Anti-proliferation effect Outcome (MHCC97H; LIVER, 7 days): Cytostatic (cytostatic (IC50<1 μM and % inhibition <70%))
- IC50 (MKN7; Homo sapiens, MKN-7, 168 h, read-out: Anti-proliferation effect IC50): > 10000 nM
- Anti-proliferation effect % Inh. (MKN7; MKN7, STOMACH, 7 days): 39%
- Anti-proliferation effect Outcome (MKN7; MKN7, STOMACH, 7 days): Insensitive (insensitive (IC50≥1 μM))
- Anti-proliferation effect % Inh. (HL60; HL60, BLOOD, 7 days): 87%
- Anti-proliferation effect Outcome (HL60; HL60, BLOOD, 7 days): Cytotoxic (cytotoxic (IC50<1 μM and % inhibition ≥70%))
- IC50 (HL60; Homo sapiens, HL-60, 168 h, read-out: Anti-proliferation effect IC50): 45 nM
- IC50 (TYKNU; [1]): 72 nM
- Anti-proliferation effect % Inh. (TYKNU; TYKNU, OVARY, 7 days): 83%
- Anti-proliferation effect Outcome (TYKNU; TYKNU, OVARY, 7 days): Cytotoxic (cytotoxic (IC50<1 μM and % inhibition ≥70%))
- Anti-proliferation effect % Inh. (DMS79; DMS79, LUNG, 7 days): 50%
- Anti-proliferation effect Outcome (DMS79; DMS79, LUNG, 7 days): Cytostatic (cytostatic (IC50<1 μM and % inhibition <70%))
- IC50 (DMS79; Homo sapiens, DMS-79, 168 h, read-out: Anti-proliferation effect IC50): 354 nM
- IC50 (THP1; Homo sapiens, THP-1, 168 h, read-out: Anti-proliferation effect IC50): 42 nM
- Anti-proliferation effect % Inh. (THP1; THP1, BLOOD, 7 days): 81%
- Anti-proliferation effect Outcome (THP1; THP1, BLOOD, 7 days): Cytotoxic (cytotoxic (IC50<1 μM and % inhibition ≥70%))
- Anti-proliferation effect % Inh. (COLO201; COLO201, INTESTINE, 7 days): 61%
- Anti-proliferation effect Outcome (COLO201; COLO201, INTESTINE, 7 days): Cytostatic (cytostatic (IC50<1 μM and % inhibition <70%))
- IC50 (COLO201; Homo sapiens, COLO 201, 168 h, read-out: Anti-proliferation effect IC50): 123 nM
